# Patent US20170273922A1, “UREA AND BIS-UREA BASED COMPOUNDS AND ANALOGUES THEREOF USEFUL IN THE TREATMENT OF ANDROGEN RECEPTOR MEDIATED DISEASES OR DISORDERS” (THE ROYAL INSTITUTION FOR THE ADVACEMENT OF LEARNING/MCGILL …, priority 2014, published 2017)
# Entries after “also recorded” stand apart in the source; their conditions may differ.
# What was measured:
# [1] = molecular target: T1, glucocorticoid receptor (GR) (Homo sapiens, UniProt P04150); assay: GR MMTV-luc reporter assay in PC3 cells; assay type: cell-based; design: interference with transcriptional activity of GR: dose or concentration left out as unconfirmed; details: for effect on GR transcriptional activation induced by DEX (MMTV-luc): 10 nM DEX, 24 h; for agonism of GR (MMTV-luc): absence of DEX
# T1 construct: PC3 cells express endogenous GR; endogenous in cells; host or cells: PC3
# T1 sequence (P04150 1-777): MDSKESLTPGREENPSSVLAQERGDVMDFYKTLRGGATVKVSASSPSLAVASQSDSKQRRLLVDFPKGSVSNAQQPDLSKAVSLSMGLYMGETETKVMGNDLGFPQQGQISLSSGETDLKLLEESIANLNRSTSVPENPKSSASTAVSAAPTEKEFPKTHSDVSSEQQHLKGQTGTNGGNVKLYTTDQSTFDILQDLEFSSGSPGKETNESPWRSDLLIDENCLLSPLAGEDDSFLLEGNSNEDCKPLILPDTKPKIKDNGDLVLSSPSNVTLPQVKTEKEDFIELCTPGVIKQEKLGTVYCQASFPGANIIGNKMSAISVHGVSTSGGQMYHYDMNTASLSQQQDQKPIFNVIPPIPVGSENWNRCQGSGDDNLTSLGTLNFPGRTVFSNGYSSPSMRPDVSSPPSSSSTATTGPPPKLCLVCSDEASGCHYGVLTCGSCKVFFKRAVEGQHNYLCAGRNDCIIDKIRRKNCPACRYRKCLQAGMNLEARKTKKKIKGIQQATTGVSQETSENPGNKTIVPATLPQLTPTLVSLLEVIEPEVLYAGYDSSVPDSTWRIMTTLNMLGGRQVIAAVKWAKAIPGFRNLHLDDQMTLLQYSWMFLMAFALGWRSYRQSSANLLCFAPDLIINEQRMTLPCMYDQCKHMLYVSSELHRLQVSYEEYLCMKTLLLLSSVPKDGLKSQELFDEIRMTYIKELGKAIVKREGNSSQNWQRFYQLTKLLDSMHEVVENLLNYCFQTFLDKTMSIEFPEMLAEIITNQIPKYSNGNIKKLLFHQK
# Excerpt: A) PC3 cells express endogenous GR. MMTV-Luc and pRL-TK were transiently co-transfected into PC3 cells.
# AR and GR are close homology proteins and both of them belong to steroid receptor family. […] MMTV-luc reporter and pRL-TK plasmids were transiently co-transfected into PC3 cells, which endogenously express GR. […] DEX is an agonist of the GR.
# [2] = molecular target: T2, T877A mutant of full-length AR (Homo sapiens, UniProt P10275, T878A); assay: AR T877A mutant PSA-luc reporter assay in PC3 cells; assay type: cell-based; details: 24 h; for inhibition of DHT-induced transactivation of T877A mutant AR (PSA-luc): 10 nM DHT; for agonism of AR T877A mutant (PSA-luc): absence of DHT
# T2 sequence (P10275 1-920 T878A): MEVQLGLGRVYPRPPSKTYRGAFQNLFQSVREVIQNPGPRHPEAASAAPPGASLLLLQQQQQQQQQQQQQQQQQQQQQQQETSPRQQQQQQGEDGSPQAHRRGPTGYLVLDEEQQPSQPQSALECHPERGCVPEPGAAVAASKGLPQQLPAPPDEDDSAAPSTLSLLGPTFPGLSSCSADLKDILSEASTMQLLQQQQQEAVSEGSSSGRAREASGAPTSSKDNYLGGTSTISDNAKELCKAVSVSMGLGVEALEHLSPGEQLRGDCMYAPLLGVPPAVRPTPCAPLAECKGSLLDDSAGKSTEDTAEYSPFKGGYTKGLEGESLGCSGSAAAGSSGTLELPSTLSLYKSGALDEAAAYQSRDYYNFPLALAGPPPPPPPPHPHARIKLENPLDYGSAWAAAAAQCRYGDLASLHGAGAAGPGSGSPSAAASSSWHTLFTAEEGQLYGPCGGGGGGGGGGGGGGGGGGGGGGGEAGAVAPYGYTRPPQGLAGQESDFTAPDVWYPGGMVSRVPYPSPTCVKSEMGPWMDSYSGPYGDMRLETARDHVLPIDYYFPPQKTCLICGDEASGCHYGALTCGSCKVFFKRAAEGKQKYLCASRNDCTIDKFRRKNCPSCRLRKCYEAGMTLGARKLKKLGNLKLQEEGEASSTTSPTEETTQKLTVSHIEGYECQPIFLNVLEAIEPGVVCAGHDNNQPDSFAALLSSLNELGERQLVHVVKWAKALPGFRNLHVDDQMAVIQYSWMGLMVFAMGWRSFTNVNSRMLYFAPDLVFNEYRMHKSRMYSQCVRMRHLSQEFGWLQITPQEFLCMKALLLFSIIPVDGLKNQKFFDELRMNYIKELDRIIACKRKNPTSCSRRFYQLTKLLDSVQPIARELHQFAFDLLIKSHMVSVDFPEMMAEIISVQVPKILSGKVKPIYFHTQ
# Excerpt: ENZ, enzalutamide; Bic, bicalutamide; OHF, hydroxyflutamide.
# [3] = molecular target: T3, AR-v7 (Homo sapiens, UniProt P10275); assay: AR-v7-dependent PSA-luc reporter assay in HEK293 cells; details: for potency relative to EPI-001 at 25 μM in suppressing constitutive activation of wild-type AR-v7: compounds at 2.5 μM
# T3 sequence (P10275 1-644 isoform P10275-3): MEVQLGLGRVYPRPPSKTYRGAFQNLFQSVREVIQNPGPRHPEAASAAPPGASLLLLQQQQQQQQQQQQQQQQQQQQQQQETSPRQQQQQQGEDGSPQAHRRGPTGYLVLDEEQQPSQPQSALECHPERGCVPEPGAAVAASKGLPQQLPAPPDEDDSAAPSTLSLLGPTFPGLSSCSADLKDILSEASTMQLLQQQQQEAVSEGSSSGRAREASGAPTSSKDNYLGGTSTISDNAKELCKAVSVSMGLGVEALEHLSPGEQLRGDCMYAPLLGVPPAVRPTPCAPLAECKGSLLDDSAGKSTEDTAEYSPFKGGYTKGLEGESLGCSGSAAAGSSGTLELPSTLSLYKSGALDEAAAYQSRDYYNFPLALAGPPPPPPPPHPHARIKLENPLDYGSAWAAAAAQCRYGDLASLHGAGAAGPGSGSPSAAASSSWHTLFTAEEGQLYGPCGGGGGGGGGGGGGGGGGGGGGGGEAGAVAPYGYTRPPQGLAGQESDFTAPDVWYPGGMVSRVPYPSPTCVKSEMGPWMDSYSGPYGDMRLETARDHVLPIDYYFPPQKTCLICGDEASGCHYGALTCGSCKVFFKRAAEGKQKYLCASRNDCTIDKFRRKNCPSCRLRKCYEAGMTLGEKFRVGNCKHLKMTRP
# Description: Cells were exposed to vehicle control or compounds at designated concentrations (μM) for 48 h.
SMILES,effect on GR transcriptional activation induced by DEX (MMTV-luc) ([1]; PC3 cells),"suppression of GR transactivation induced by 10 nM DEX ([1]; 5 μM, PC3 cells)",agonism of GR (MMTV-luc) ([1]; 5 μM),agonism of GR (MMTV-luc) ([1]; PC3 cells),inhibition of DHT-induced transactivation of T877A mutant AR (PSA-luc) [2],agonism of AR T877A mutant (PSA-luc) [2],inhibition of constitutive activation of AR-v7 (PSA-luc) ([3]; 24 h),interference with transcriptional activity of GR [1],inhibition of constitutive activation of AR-v7 (PSA-luc) ([3]; 2.5 μM),potency relative to EPI-001 at 25 μM in suppressing constitutive activation of wild-type AR-v7 [3]
N#Cc1ccc(NC(=O)Nc2cccc(C(F)(F)F)c2)cc1C(F)(F)F [Compound 467],inactive,inactive,non-agonist,non-agonist,dose-dependently suppressed; also recorded: dose-dependently inhibit,non-agonist,inhibited,–,–,–
O=C(Nc1ccc(Br)nc1)Nc1cc(C(F)(F)F)cc(C(F)(F)F)c1 [Compound 566],do not interfere,–,–,–,–,–,–,do not interfere,inhibit,more potent than EPI-001 at 25 μM
O=C(N/C=C/c1cccc(C(F)(F)F)c1)Nc1ccncn1 [Compound 562],do not interfere; also recorded: selective towards the AR,–,–,–,inhibit,–,dose-dependently inhibit,do not interfere,inhibit,more potent than EPI-001 at 25 μM
O=C(Nc1cccc(C(F)(F)F)c1)Nc1ccc(NC(=O)c2ccccc2F)c(C(F)(F)F)c1 [Compound 746],do not interfere; also recorded: selective towards the AR,–,–,–,inhibit,–,dose-dependently inhibit,do not interfere,inhibit,–
O=C(Nc1cccc(C(F)(F)F)c1)Nc1ccc([N+](=O)[O-])c(C(F)(F)F)c1 [Compound 442],inactive,inactive,non-agonist,non-agonist,dose-dependently suppressed; also recorded: dose-dependently inhibit,non-agonist,inhibited,–,–,–
N#Cc1ccc(NC(=O)Nc2cccc(C(F)(F)F)c2)cc1Cl [Compound 492],inactive,inactive,non-agonist,–,dose-dependently suppressed; also recorded: dose-dependently inhibit,non-agonist,inhibited,–,–,–
